# Publication PMC7570671, “Synthesis and Biological Evaluation of Novel Benodanil-Heterocyclic Carboxamide Hybrids as a Potential Succinate Dehydrogenase Inhibitors” (Molecules, 2020)
# Target: T1, succinate dehydrogenase (SDH) from mitochondria of R. solani (Rhizoctonia solani, UniProt A0A0K6FYZ3+A0A0K6G4J6+A0A0K6G6J3)
# T1 construct: gene sdhB; native complex II in isolated mitochondria, not purified; with Succinate dehydrogenase [ubiquinone] flavoprotein subunit, mitochondrial
# Assay: succinate:ubiquinone/DCPIP reductase inhibition in isolated mitochondria, absorbance at […] nm
# Type: biochemical
# T1 sequence (A0A0K6FYZ3 29-278): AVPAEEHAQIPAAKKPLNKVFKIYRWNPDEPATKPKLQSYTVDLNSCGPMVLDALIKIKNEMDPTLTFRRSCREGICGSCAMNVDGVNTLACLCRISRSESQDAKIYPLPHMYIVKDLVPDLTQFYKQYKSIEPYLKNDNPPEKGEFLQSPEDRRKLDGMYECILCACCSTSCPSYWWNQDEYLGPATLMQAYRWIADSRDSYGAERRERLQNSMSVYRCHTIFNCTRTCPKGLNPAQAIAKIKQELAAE
# T1 sequence (A0A0K6G4J6 37-154): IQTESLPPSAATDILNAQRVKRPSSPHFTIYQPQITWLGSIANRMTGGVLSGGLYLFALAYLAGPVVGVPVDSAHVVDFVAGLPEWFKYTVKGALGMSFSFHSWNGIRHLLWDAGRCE
# T1 sequence (A0A0K6G6J3 32-176): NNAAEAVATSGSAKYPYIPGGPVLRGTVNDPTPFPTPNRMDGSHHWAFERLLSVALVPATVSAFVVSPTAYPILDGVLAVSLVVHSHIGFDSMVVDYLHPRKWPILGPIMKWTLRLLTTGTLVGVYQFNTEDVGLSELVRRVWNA
# T1 sequence (A0A0K6G1V0 48-643 partner): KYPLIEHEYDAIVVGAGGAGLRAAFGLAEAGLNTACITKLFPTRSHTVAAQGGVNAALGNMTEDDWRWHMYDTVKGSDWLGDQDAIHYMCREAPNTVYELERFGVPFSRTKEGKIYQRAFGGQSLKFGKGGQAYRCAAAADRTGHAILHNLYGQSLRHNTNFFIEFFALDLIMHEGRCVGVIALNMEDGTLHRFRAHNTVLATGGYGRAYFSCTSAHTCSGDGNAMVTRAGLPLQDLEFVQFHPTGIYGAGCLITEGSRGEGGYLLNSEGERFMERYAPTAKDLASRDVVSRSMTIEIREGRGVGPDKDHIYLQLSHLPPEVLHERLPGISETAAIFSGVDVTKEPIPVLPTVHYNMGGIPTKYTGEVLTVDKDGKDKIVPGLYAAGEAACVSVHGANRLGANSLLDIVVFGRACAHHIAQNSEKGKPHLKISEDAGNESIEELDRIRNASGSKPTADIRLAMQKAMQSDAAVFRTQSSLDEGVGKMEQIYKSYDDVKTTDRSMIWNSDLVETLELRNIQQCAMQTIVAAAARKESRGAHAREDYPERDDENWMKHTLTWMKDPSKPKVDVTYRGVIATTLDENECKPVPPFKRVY
row,Compound,IC50 [µM]
1,Cn1cc(C(=O)Nc2ccccc2C(=O)Nc2cccc(C(F)(F)F)c2)c(C(F)F)n1 [compound 18],130
2,O=C(Nc1ccccc1)c1ccccc1I [benodanil],192
3,CC(C)c1cccc(NC(=O)c2ccccc2NC(=O)c2cn(C)nc2C(F)F)c1 [compound 17],127
